Source: PubChem BioAssay AID248 (DTP/NCI, 2004)
Toxic doses and inconclusive results are not listed. No stated cut-off is given here; in the data, active means T/C of 150% or more; inactive means T/C below 125%.

System: L1210 leukemia ip in BDF1 mice, survival T/C
Assay: NCI In Vivo Anticancer Drug Screen. Data for tumor model L1210 Leukemia (intraperitoneal) in B6D2F1 (BDF1) mice
Conditions: endpoint: mean survival time, higher = longer survival
Method in brief: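 Transplanted-tumor mice were given test agent; controls received vehicle only. Survival readings from the two groups were divided (treated over control).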

[1] = dose: 100.0 mg/kg/injection, schedule: Q04DX002 (ip), vehicle: Klucel (hydroxypropylcellulose) (HPC)
[2] = dose: 200.0 mg/kg/injection, schedule: Q04DX002 (ip), vehicle: Klucel (hydroxypropylcellulose) (HPC)
[3] = dose: 400.0 mg/kg/injection, schedule: Q04DX002 (ip), vehicle: Klucel (hydroxypropylcellulose) (HPC)
[4] = dose: 100.0 mg/kg/injection, schedule: Q01DX001 (ip), vehicle: saline
[5] = dose: 200.0 mg/kg/injection, schedule: Q01DX001 (ip), vehicle: saline
[6] = dose: 400.0 mg/kg/injection, schedule: Q01DX001 (ip), vehicle: saline
[7] = dose: 100.0 mg/kg/injection, schedule: Q04DX003 (ip), vehicle: Klucel (hydroxypropylcellulose) (HPC)
[8] = dose: 200.0 mg/kg/injection, schedule: Q04DX003 (ip), vehicle: Klucel (hydroxypropylcellulose) (HPC)
[9] = dose: 400.0 mg/kg/injection, schedule: Q04DX003 (ip), vehicle: Klucel (hydroxypropylcellulose) (HPC)
[10] = dose: 50.0 mg/kg/injection, schedule: Q01DX009 (ip), vehicle: saline with Tween-80
[11] = dose: 100.0 mg/kg/injection, schedule: Q01DX009 (ip), vehicle: saline with Tween-80
[12] = dose: 200.0 mg/kg/injection, schedule: Q01DX009 (ip), vehicle: saline with Tween-80
[13] = dose: 100.0 mg/kg/injection, schedule: Q04DX003 (ip), vehicle: saline with Tween-80
[14] = dose: 200.0 mg/kg/injection, schedule: Q04DX003 (ip), vehicle: saline with Tween-80
[15] = dose: 400.0 mg/kg/injection, schedule: Q04DX003 (ip), vehicle: saline with Tween-80
[16] = dose: 100.0 mg/kg/injection, schedule: Q01DX001 (ip), vehicle: Klucel (hydroxypropylcellulose) (HPC)
[17] = dose: 200.0 mg/kg/injection, schedule: Q01DX001 (ip), vehicle: Klucel (hydroxypropylcellulose) (HPC)
[18] = dose: 6.25 mg/kg/injection, schedule: Q01DX009 (ip), vehicle: saline
[19] = dose: 12.5 mg/kg/injection, schedule: Q01DX009 (ip), vehicle: saline
[20] = dose: 400.0 mg/kg/injection, schedule: Q01DX009 (ip), vehicle: saline with Tween-80
[21] = dose: 25.0 mg/kg/injection, schedule: Q01DX009 (ip), vehicle: saline with Tween-80

Measured: T/C

COc1ccc(C(=O)Nc2ccccc2SC)cc1
inactive: [1] 99 % of control | [2] 96 % of control | [3] 102 % of control

N#Cc1ccc(S(=O)(=O)N=C(N)N)cc1
inactive: [4] 100 % of control | [5] 91 % of control | [6] 90 % of control

Cc1ccc([N+](=O)[O-])cc1NC(=O)SCCSC(=O)Nc1cc([N+](=O)[O-])ccc1C
inactive: [7] 90 % of control | [8] 92 % of control | [9] 92 % of control

CCCCCCCCCCCCCCCC(=O)OC(C)COC (centres undefined)
inactive: [10] 108 % of control | dose: 100.0 mg/kg/injection, schedule: Q01DX001 (ip), vehicle: other 102 % of control | [11] 98 % of control | dose: 100.0 mg/kg/injection, schedule: Q04DX003 (ip), vehicle: other 111 % of control | dose: 200.0 mg/kg/injection, schedule: Q01DX001 (ip), vehicle: other 94 % of control | [12] 98 % of control | dose: 200.0 mg/kg/injection, schedule: Q04DX003 (ip), vehicle: other 107 % of control | dose: 400.0 mg/kg/injection, schedule: Q01DX001 (ip), vehicle: other 101 % of control | dose: 400.0 mg/kg/injection, schedule: Q04DX003 (ip), vehicle: other 110 % of control

Nc1cc(S(N)(=O)=O)ccc1N1CCCC1
inactive: [13] 96 % of control | [14] 91 % of control | [15] 102 % of control

O=c1[nH]cc(CSC(=S)Nc2ccc(Cl)c(Cl)c2)c(=O)[nH]1
inactive: dose: 15.0 mg/kg/injection, schedule: Q04DX003 (ip), vehicle: saline with Tween-80 104 % of control | dose: 30.0 mg/kg/injection, schedule: Q04DX003 (ip), vehicle: saline with Tween-80 101 % of control | dose: 60.0 mg/kg/injection, schedule: Q04DX003 (ip), vehicle: saline with Tween-80 104 % of control

COc1cccc(C=Nc2ccc(I)cc2)c1O.COc1cccc(C=Nc2ccc(I)cc2)c1O.[Co]
inactive: dose: 100.0 mg/kg/injection, schedule: Q04DX003 (ip), vehicle: saline 94 % of control | dose: 200.0 mg/kg/injection, schedule: Q04DX003 (ip), vehicle: saline 94 % of control | dose: 400.0 mg/kg/injection, schedule: Q04DX003 (ip), vehicle: saline 109 % of control

CON(C)S(=O)(=O)c1ccc([N+](=O)[O-])cc1
inactive: [16] 102 % of control | [17] 98 % of control

C1CN2CCN1CC2.[Cl][Ni+][Cl]
inactive: dose: 1.56 mg/kg/injection, schedule: Q01DX009 (ip), vehicle: saline 101 % of control | dose: 2.0 mg/kg/injection, schedule: Q04DX003 (ip), vehicle: saline 109 % of control | dose: 3.12 mg/kg/injection, schedule: Q01DX009 (ip), vehicle: saline 101 % of control | dose: 4.0 mg/kg/injection, schedule: Q04DX003 (ip), vehicle: saline 106 % of control | [18] 94 % of control | dose: 8.0 mg/kg/injection, schedule: Q04DX003 (ip), vehicle: saline 97 % of control | [19] 92 % of control | dose: 16.0 mg/kg/injection, schedule: Q04DX003 (ip), vehicle: saline 105 % of control

O=C(O)c1ccc2c(c1Nc1ccc(-c3ccc(Nc4c(C(=O)O)ccc5c4C(=O)c4ccccc4C5=O)cc3)cc1)C(=O)c1ccccc1C2=O
inactive: [7] 93 % of control | [8] 97 % of control | [9] 101 % of control

N#C/C(=C/c1c(Cl)cccc1Cl)C(N)=O
inactive: dose: 75.0 mg/kg/injection, schedule: Q01DX001 (ip), vehicle: saline 93 % of control

CCOC(=O)C1CCCN(S(=O)(=O)c2ccc(C)cc2)c2ccccc2C1=O (centres undefined)
inactive: [7] 93 % of control | [8] 102 % of control | [9] 94 % of control

O=C(O)/C=C/C(=O)Nc1cc(Cl)cc2c1-c1c(Cl)cc(Cl)cc1C2=O
inactive: dose: 50.0 mg/kg/injection, schedule: Q01DX009 (ip), vehicle: saline 94 % of control | dose: 100.0 mg/kg/injection, schedule: Q01DX009 (ip), vehicle: saline 94 % of control | [7] 98 % of control | dose: 200.0 mg/kg/injection, schedule: Q01DX009 (ip), vehicle: saline 96 % of control | [8] 98 % of control

NC(=O)C1CC=CCC1C(=O)O (centres undefined)
inactive: dose: 100.0 mg/kg/injection, schedule: Q01DX009 (ip), vehicle: other 88 % of control | dose: 200.0 mg/kg/injection, schedule: Q01DX009 (ip), vehicle: other 100 % of control | dose: 400.0 mg/kg/injection, schedule: Q01DX009 (ip), vehicle: other 92 % of control

CCO/C=C/c1ccccc1
inactive: [11] 101 % of control | [13] 93 % of control | [12] 96 % of control | [14] 98 % of control | [20] 90 % of control

Cc1ccc(NC(=O)Nc2ccccc2C(N)=O)cc1
inactive: dose: 100.0 mg/kg/injection, schedule: Q04DX003 (ip), vehicle: saline sonified 92 % of control | dose: 200.0 mg/kg/injection, schedule: Q04DX003 (ip), vehicle: saline sonified 92 % of control | dose: 400.0 mg/kg/injection, schedule: Q04DX003 (ip), vehicle: saline sonified 89 % of control

Cc1cc(N(CCCOS(C)(=O)=O)CCCOS(C)(=O)=O)ccc1C=Nc1cccc(Cl)c1
inactive: [13] 97 % of control | [14] 98 % of control | [15] 92 % of control

CC1(C)N=C(N)N=C(N)N1c1ccc(CCCCc2cccc(S(=O)(=O)F)c2)c(Cl)c1
inactive: dose: 6.25 mg/kg/injection, schedule: Q01DX009 (ip), vehicle: saline with Tween-80 106 % of control | dose: 12.5 mg/kg/injection, schedule: Q01DX009 (ip), vehicle: saline with Tween-80 104 % of control | [21] 113 % of control

CCCCCCCCCCCC(=O)NC(=S)Nc1ccc(C)c(Cl)c1
inactive: [7] 89 % of control | [8] 95 % of control | [9] 90 % of control

CCOP(=O)(NC12CC3CC(CC(C3)C1)C2)OCC
inactive: dose: 100.0 mg/kg/injection, schedule: Q01DX009 (ip), vehicle: Klucel (hydroxypropylcellulose) (HPC) 97 % of control | [7] 93 % of control | dose: 200.0 mg/kg/injection, schedule: Q01DX009 (ip), vehicle: Klucel (hydroxypropylcellulose) (HPC) 94 % of control | [8] 98 % of control | [9] 90 % of control

O=[N+]([O-])c1ccc(C(O)Nc2nccs2)o1 (centres undefined)
inactive: [21] 96 % of control | [10] 117 % of control

Cc1[nH]c2ccccc2c(=O)c1-c1ccccc1
inactive: dose: 50.0 mg/kg/injection, schedule: Q01DX001 (ip), vehicle: saline 98 % of control | [4] 98 % of control | [5] 102 % of control | [6] 96 % of control

N#CC(C#N)=Cc1c[nH]c2ccccc12
inactive: [11] 86 % of control | [13] 95 % of control | [12] 89 % of control | [14] 97 % of control | [20] 86 % of control

O=C(O)CCCC1CCc2ccccc2C1 (centres undefined)
inactive: [16] 104 % of control | [17] 102 % of control | dose: 400.0 mg/kg/injection, schedule: Q01DX001 (ip), vehicle: Klucel (hydroxypropylcellulose) (HPC) 103 % of control

O=C1N/C(=N/OCc2ccc([N+](=O)[O-])cc2)CC(NOCc2ccc([N+](=O)[O-])cc2)N1 (centres undefined)
inactive: [13] 91 % of control | [14] 101 % of control | [15] 89 % of control

CC12CC3CC1C2C3OC=O (centres undefined)
inactive: dose: 50.0 mg/kg/injection, schedule: Q01DX001 (ip), vehicle: carboxymethylcellulose (CMC) 90 % of control | dose: 100.0 mg/kg/injection, schedule: Q01DX001 (ip), vehicle: carboxymethylcellulose (CMC) 95 % of control | dose: 200.0 mg/kg/injection, schedule: Q01DX001 (ip), vehicle: carboxymethylcellulose (CMC) 95 % of control | dose: 400.0 mg/kg/injection, schedule: Q01DX001 (ip), vehicle: carboxymethylcellulose (CMC) 101 % of control

FC(F)(F)c1cccc(C(OCCN2CCCC2)c2ccccc2)c1 (centres undefined)
inactive: [18] 92 % of control | [19] 95 % of control | dose: 25.0 mg/kg/injection, schedule: Q01DX009 (ip), vehicle: saline 110 % of control

Nc1ccc(S(=O)(=O)Nc2ncccn2)cc1
inactive: [4] 96 % of control | [1] 103 % of control | [5] 97 % of control | [2] 92 % of control | [6] 103 % of control | [3] 103 % of control
